Values of other authors in US20020082283A1, “Nitrogen-containing compounds and their use as glycine transport inhibitors” (Gliatech, Inc., priority 2000, published 2002).

Tested on: NMDA receptor
Settings: in vitro at concentrations at which clinical efficacy is seen

Compound: O=C(CCCN1CCC(O)(c2ccc(Cl)cc2)CC1)c1ccc(F)cc1 [haloperidol]
- increase in NMDA receptor activity: ~40%
